Results from ChEMBL document CHEMBL5463729, “Data for DCP probe BAY 1753011” (2023).

Tests used:
[1] = biological target: Activin receptor type-1-like (Homo sapiens) (UniProt P37023); assay: Inhibition of ALK1(h) at 10.0 µM in the Eurofins Kinase panel; conditions: Compound concentration 10.0 uM
[2] = biological target: D(2) dopamine receptor (Homo sapiens) (UniProt P14416); conditions: Compound concentration 10.0 uM
[3] = biological target: Serine/threonine-protein kinase MRCK alpha (Homo sapiens) (UniProt Q5VT25); assay: Inhibition of MRCKalpha(h) at 10.0 µM in the Eurofins Kinase panel; conditions: Compound concentration 10.0 uM
[4] = biological target: Protein kinase C eta type (Homo sapiens) (UniProt P24723); assay: Inhibition of PKCeta(h) at 10.0 µM in the Eurofins Kinase panel; conditions: Compound concentration 10.0 uM
[5] = biological target: Delta-type opioid receptor (Homo sapiens) (UniProt P41143); conditions: Compound concentration 10.0 uM
[6] = biological target: Bone morphogenetic protein receptor type-1B (Homo sapiens) (UniProt O00238); assay: Inhibition of ALK6(h) at 10.0 µM in the Eurofins Kinase panel; conditions: Compound concentration 10.0 uM
[7] = biological target: Epithelial discoidin domain-containing receptor 1 (Homo sapiens) (UniProt Q08345); assay: Inhibition of DDR1(h) at 10.0 µM in the Eurofins Kinase panel; conditions: Compound concentration 10.0 uM
[8] = biological target: Glutamate NMDA receptor (Rattus norvegicus) (UniProt P35439+Q00959+Q00960+Q00961+Q62645+Q8VHN2+Q9R1M7); conditions: Compound concentration 10.0 uM
[9] = biological target: Insulin receptor-related protein (Homo sapiens) (UniProt P14616); assay: Inhibition of IRR(h) at 10.0 µM in the Eurofins Kinase panel; conditions: Compound concentration 10.0 uM
[10] = biological target: Homeodomain-interacting protein kinase 1 (Homo sapiens) (UniProt Q86Z02); assay: Inhibition of HIPK1(h) at 10.0 µM in the Eurofins Kinase panel; conditions: Compound concentration 10.0 uM
[11] = biological target: Phosphatidylinositol 3-kinase C2 domain-containing subunit gamma (Homo sapiens) (UniProt O75747); assay: Inhibition of PI3KC2g(h) at 10.0 µM in the Eurofins Kinase panel; conditions: Compound concentration 10.0 uM
[12] = biological target: T1, GABA-A receptor; anion channel (Rattus norvegicus) (UniProt O09028+P15431+P18506+P18508+P19969+P20236+P23574+P23576+P28471+P28473+P30191+P62813+P63079+P63138+Q91ZM7+Q9ES14); conditions: Compound concentration 10.0 uM
[13] = biological target: Death-associated protein kinase 3 (Homo sapiens) (UniProt O43293); assay: Inhibition of ZIPK(h) at 10.0 µM in the Eurofins Kinase panel; conditions: Compound concentration 10.0 uM
Death-associated protein kinase 3 (Homo sapiens), sequence (O43293 whole entry, looked up, the tested form may be a part): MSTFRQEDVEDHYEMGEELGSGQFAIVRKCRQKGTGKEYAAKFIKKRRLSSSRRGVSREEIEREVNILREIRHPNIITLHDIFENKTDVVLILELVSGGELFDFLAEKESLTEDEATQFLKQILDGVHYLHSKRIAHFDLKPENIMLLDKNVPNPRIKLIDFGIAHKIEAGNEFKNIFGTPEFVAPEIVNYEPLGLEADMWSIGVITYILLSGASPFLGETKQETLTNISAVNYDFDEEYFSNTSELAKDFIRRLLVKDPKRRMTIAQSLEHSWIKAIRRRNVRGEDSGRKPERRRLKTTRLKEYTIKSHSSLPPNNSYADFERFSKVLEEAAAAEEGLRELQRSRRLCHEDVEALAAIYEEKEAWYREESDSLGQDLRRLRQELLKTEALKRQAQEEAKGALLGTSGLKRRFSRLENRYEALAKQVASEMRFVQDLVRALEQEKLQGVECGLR

[14] = biological target: LIM domain kinase 1 (Homo sapiens) (UniProt P53667); assay: Inhibition of LIMK1(h) at 10.0 µM in the Eurofins Kinase panel; conditions: Compound concentration 10.0 uM
[15] = biological target: Ephrin type-A receptor 8 (Homo sapiens) (UniProt P29322); assay: Inhibition of EphA8(h) at 10.0 µM in the Eurofins Kinase panel; conditions: Compound concentration 10.0 uM
[16] = biological target: Calcium/calmodulin-dependent protein kinase type 1G (Homo sapiens) (UniProt Q96NX5); assay: Inhibition of CaMKIgamma(h) at 10.0 µM in the Eurofins Kinase panel; conditions: Compound concentration 10.0 uM
[17] = biological target: Serine/threonine-protein kinase DCLK3 (Homo sapiens) (UniProt Q9C098); assay: Inhibition of DCAMKL3(h) at 10.0 µM in the Eurofins Kinase panel; conditions: Compound concentration 10.0 uM
Serine/threonine-protein kinase DCLK3 (Homo sapiens), sequence (Q9C098 whole entry): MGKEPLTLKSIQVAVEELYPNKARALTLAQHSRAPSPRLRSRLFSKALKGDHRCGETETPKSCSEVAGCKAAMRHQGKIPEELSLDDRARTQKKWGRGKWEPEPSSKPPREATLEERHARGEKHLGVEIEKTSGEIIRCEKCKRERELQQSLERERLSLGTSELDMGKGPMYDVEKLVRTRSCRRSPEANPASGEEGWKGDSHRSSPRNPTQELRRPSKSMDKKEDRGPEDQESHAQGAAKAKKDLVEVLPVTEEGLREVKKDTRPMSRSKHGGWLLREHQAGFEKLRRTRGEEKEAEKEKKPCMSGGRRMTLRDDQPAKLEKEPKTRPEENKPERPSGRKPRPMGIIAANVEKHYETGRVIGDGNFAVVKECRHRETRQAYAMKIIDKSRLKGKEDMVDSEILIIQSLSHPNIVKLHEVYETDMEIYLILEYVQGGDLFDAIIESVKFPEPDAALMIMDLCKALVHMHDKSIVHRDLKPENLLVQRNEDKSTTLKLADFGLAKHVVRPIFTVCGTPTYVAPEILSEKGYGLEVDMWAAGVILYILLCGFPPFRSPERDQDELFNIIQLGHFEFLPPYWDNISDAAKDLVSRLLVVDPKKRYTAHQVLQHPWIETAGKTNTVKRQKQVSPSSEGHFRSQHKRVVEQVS

[18] = biological target: Serine/threonine-protein kinase TAO2 (Homo sapiens) (UniProt Q9UL54); assay: Inhibition of TAO2(h) at 10.0 µM in the Eurofins Kinase panel; conditions: Compound concentration 10.0 uM
Serine/threonine-protein kinase TAO2 (Homo sapiens), sequence (Q9UL54 whole entry): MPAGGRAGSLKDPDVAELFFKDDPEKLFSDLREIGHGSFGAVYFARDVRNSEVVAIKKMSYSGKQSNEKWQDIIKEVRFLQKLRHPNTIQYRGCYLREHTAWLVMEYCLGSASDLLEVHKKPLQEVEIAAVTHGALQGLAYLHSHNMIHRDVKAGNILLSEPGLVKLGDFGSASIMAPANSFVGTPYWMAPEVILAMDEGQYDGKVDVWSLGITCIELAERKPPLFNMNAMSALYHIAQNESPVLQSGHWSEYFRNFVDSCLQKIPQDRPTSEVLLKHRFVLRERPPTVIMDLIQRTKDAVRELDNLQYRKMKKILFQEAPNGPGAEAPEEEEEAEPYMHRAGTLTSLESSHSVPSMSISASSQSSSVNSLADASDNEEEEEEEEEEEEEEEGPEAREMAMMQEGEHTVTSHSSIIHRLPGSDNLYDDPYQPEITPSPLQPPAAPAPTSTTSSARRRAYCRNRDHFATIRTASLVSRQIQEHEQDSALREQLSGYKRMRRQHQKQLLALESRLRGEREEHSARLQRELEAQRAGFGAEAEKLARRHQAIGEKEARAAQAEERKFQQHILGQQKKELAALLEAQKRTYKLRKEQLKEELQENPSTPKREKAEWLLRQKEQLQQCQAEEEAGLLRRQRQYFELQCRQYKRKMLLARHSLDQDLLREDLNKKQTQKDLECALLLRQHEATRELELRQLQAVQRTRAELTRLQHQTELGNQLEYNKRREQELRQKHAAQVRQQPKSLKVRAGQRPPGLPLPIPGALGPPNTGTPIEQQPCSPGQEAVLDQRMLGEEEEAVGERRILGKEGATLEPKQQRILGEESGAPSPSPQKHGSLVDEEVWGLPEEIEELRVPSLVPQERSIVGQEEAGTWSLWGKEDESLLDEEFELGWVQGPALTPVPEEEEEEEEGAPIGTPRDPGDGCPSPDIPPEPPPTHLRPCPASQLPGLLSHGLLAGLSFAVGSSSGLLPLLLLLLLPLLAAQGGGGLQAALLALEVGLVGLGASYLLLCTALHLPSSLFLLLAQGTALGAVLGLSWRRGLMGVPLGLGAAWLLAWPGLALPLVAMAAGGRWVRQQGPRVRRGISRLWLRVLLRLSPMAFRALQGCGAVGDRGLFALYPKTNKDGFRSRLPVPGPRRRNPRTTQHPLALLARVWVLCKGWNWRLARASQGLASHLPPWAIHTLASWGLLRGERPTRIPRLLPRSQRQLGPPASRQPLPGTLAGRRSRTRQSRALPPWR

[19] = biological target: Serine/threonine-protein kinase MARK2 (Homo sapiens) (UniProt Q7KZI7); assay: Inhibition of PAR-1Balpha(h) at 10.0 µM in the Eurofins Kinase panel; conditions: Compound concentration 10.0 uM
Serine/threonine-protein kinase MARK2 (Homo sapiens), sequence (Q7KZI7 whole entry): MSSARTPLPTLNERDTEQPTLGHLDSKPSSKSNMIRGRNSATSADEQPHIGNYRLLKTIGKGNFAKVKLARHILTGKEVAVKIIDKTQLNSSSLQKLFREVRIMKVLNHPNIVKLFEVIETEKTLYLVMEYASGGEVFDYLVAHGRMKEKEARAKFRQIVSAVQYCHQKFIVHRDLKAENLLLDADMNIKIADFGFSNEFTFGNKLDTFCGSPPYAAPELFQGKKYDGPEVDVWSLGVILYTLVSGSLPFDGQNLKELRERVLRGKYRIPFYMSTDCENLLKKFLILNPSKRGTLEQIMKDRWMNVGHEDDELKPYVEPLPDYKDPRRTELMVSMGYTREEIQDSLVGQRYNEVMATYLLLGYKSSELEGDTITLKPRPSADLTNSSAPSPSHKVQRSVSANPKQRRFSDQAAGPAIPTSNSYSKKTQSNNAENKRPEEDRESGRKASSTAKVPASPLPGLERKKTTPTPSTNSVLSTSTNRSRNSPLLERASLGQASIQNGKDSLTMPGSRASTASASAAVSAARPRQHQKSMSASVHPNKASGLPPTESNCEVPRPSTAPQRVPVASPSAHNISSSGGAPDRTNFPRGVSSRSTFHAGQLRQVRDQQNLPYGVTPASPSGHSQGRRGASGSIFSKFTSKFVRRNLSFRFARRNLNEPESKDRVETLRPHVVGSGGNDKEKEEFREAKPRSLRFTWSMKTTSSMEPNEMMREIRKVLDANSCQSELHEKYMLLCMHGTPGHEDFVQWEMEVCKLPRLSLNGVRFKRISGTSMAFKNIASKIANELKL

[20] = biological target: Tyrosine-protein kinase Mer (Homo sapiens) (UniProt Q12866); assay: Inhibition of Mer(h) at 10.0 µM in the Eurofins Kinase panel; conditions: Compound concentration 10.0 uM
Tyrosine-protein kinase Mer (Homo sapiens), sequence (Q12866 whole entry): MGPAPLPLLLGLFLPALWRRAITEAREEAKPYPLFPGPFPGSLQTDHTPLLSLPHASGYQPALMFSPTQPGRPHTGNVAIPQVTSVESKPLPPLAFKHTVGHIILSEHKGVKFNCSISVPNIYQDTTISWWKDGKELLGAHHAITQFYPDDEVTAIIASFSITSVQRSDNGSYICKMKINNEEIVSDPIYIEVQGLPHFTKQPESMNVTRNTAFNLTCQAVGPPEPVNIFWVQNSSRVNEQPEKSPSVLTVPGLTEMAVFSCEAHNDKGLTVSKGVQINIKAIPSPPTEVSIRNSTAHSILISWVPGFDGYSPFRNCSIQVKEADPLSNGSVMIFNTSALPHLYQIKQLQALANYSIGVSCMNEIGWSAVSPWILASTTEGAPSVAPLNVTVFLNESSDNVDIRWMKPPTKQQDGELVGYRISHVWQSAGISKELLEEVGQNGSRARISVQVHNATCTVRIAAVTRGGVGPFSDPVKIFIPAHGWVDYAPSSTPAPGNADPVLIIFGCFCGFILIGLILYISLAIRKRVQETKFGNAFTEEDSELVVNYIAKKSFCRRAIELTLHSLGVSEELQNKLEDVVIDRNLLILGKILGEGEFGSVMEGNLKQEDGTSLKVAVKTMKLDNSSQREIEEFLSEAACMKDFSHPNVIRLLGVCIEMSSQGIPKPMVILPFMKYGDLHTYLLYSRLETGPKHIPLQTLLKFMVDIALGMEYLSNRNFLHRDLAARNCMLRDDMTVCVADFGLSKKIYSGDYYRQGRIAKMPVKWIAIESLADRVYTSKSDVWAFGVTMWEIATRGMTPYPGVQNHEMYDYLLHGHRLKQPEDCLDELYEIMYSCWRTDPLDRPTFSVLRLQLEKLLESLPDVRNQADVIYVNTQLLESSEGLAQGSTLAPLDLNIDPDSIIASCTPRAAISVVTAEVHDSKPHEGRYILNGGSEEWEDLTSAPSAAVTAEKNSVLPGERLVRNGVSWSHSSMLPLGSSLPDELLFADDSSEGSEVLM

[21] = biological target: Insulin receptor (Homo sapiens) (UniProt P06213); conditions: Rattus norvegicus; Compound concentration 10.0 uM
[22] = biological target: Serine/threonine-protein kinase LATS1 (Homo sapiens) (UniProt O95835); assay: Inhibition of LATS1(h) at 10.0 µM in the Eurofins Kinase panel; conditions: Compound concentration 10.0 uM
[23] = biological target: Mitogen-activated protein kinase kinase kinase 9 (Homo sapiens) (UniProt P80192); assay: Inhibition of MLK1(h) at 10.0 µM in the Eurofins Kinase panel; conditions: Compound concentration 10.0 uM
[24] = biological target: T1, GABA-A receptor; anion channel (Rattus norvegicus); conditions: Compound concentration 10.0 uM; remark: listed apart in the source
[25] = biological target: Mitogen-activated protein kinase 10 (Homo sapiens) (UniProt P53779); assay: Inhibition of JNK3(h) at 10.0 µM in the Eurofins Kinase panel; conditions: Compound concentration 10.0 uM
Mitogen-activated protein kinase 10 (Homo sapiens), sequence (P53779 whole entry): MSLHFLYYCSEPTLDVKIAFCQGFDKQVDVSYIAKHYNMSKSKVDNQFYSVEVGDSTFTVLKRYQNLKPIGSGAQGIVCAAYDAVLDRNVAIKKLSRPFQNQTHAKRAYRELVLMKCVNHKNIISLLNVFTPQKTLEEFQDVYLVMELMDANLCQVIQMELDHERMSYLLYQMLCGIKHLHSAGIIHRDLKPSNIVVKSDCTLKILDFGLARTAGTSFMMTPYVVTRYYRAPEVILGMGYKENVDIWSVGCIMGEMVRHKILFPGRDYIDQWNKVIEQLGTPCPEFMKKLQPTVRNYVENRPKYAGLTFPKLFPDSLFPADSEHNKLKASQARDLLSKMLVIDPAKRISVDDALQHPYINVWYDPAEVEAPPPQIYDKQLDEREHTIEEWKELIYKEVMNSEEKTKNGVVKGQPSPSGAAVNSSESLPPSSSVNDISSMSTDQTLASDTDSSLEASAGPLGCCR

[26] = biological target: T2, Vasopressin V1b receptor (Homo sapiens) (UniProt P47901); assay: Inhibition of Vasopressin V1B at 10 µM in the Eurofins-Panlabs radioligand binding assay (Eurofins_assay_287560); design: ligand concentration 1 nM
T2 sequence (whole entry): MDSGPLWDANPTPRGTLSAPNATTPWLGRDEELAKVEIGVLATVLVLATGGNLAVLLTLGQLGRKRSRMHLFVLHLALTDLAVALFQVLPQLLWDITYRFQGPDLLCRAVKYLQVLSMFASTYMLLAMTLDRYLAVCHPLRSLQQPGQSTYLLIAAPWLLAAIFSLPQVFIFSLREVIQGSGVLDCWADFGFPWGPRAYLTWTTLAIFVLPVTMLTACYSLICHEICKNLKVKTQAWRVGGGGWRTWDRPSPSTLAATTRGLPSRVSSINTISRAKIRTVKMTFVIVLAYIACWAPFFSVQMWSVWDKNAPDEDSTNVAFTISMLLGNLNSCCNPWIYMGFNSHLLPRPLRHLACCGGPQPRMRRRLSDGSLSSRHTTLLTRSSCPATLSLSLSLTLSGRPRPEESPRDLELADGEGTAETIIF

[27] = biological target: Mitogen-activated protein kinase kinase kinase kinase 4 (Homo sapiens) (UniProt O95819); assay: Inhibition of MAP4K4(h) at 10.0 µM in the Eurofins Kinase panel; conditions: Compound concentration 10.0 uM
[28] = biological target: Serine/threonine-protein kinase 33 (Homo sapiens) (UniProt Q9BYT3); assay: Inhibition of STK33(h) at 10.0 µM in the Eurofins Kinase panel; conditions: Compound concentration 10.0 uM
[29] = biological target: Beta-1 adrenergic receptor (Homo sapiens) (UniProt P08588); conditions: Compound concentration 10.0 uM
Beta-1 adrenergic receptor (Homo sapiens), sequence (P08588 whole entry, looked up): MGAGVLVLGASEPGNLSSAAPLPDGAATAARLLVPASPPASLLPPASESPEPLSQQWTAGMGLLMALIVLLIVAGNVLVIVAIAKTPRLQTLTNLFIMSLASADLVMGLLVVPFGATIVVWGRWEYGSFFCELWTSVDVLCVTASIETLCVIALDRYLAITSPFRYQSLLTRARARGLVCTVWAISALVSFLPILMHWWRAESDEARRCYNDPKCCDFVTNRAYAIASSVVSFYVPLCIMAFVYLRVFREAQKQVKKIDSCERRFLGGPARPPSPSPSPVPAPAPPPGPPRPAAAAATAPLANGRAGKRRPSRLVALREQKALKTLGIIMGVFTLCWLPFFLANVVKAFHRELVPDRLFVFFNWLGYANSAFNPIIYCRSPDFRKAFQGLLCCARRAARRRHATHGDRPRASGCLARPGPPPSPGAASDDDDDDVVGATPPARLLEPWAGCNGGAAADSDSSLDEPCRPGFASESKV

Structure (SMILES)	inhibition [1] [%]	inhibition [2] [%]	inhibition [3] [%]	inhibition [4] [%]	inhibition [5] [%]	inhibition [6] [%]	inhibition [7] [%]	inhibition [8] [%]	inhibition [9] [%]	inhibition [10] [%]	inhibition [11] [%]	inhibition [12] [%]	inhibition [13] [%]	inhibition [14] [%]	inhibition [15] [%]	inhibition [16] [%]	inhibition [17] [%]	inhibition [18] [%]	inhibition [19] [%]	inhibition [20] [%]	also measured
O=c1n(Cc2cncn2-c2cccc(Cl)c2)nc(-c2ccc(Cl)cc2)n1C[C@H](O)C(F)(F)F	-1.34	-3	-4.95	10.8	2	-0.99	0.92	-8	-9.92	1.31	6.58	12	1.49	0.42	3.67	0.71	-6.07	-6.37	5.49	-6.11	inhibition [21]: 1%; inhibition [22]: -2.66%; inhibition [23]: -1.25%; inhibition [24]: -1%; inhibition [25]: 13.2%; inhibition ([26]; Compound concentration 10.0 uM): 7%; inhibition [27]: 5.56%; inhibition [28]: 6.15%; inhibition [29]: 5%
C[C@H](O)c1nc(Cn2nc(-c3ccc(Cl)cc3)n(C[C@H](O)C(F)(F)F)c2=O)nn1-c1cccc(Cl)c1 [PECAVAPTAN]	-9.71	14	-2.43	4.39	4	-1.01	7.3	2	0.47	-2.92	6.41	30	-5.08	0.57	4.55	-0.43	-4.82	-4.1	7.5	-0.91	inhibition [21]: -1%; inhibition [22]: -5.36%; inhibition [23]: 3.5%; inhibition [24]: -1%; inhibition [25]: 0.72%; inhibition ([26]; Compound concentration 0.001 uM): 6%; inhibition ([26]; Compound concentration 0.01 uM): -6%; inhibition ([26]; Compound concentration 0.1 uM): -5%; inhibition ([26]; Compound concentration 1.0 uM): 5%; inhibition ([26]; Compound concentration 10.0 uM): 43%; inhibition [27]: -1.46%; inhibition [28]: 6.36%; inhibition [29]: 5%
